According to patent US10494332B2, “Protein tyrosine phosphatases or SHP2 inhibitors and uses thereof” (Indiana University Research and Technology Corporation, priority 2015, dated 2019):
Several values for one entry are separate records, joined by “and”; a condition that tells them apart may be missing. Identical values can stand only once. Like-named read-outs stand apart in the source and are kept apart here.

Legend:
Assay type in all cases: biochemical
PTP1B = target: T1, PTP1B (Homo sapiens, UniProt P18031); test: PTP inhibition assay (pNPP); conditions: pNPP at Km, pH 7.0, 25° C.
T1 sequence (P18031 1-435): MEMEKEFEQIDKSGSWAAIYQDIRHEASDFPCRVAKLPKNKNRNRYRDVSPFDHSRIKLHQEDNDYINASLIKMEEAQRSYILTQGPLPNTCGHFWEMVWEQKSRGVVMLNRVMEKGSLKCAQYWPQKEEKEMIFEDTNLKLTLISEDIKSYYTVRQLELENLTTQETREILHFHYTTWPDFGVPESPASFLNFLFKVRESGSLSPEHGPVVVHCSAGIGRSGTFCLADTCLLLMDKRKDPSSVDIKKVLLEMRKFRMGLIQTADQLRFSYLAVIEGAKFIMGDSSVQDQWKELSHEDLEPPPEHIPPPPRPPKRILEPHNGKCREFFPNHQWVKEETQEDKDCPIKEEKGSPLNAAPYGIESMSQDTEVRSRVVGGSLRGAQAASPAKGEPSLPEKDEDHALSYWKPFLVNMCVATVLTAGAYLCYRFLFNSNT

LAR = LAR (Homo sapiens, UniProt P10586); test: PTP inhibition assay (pNPP)
Chain of LAR (P10586 30-1907): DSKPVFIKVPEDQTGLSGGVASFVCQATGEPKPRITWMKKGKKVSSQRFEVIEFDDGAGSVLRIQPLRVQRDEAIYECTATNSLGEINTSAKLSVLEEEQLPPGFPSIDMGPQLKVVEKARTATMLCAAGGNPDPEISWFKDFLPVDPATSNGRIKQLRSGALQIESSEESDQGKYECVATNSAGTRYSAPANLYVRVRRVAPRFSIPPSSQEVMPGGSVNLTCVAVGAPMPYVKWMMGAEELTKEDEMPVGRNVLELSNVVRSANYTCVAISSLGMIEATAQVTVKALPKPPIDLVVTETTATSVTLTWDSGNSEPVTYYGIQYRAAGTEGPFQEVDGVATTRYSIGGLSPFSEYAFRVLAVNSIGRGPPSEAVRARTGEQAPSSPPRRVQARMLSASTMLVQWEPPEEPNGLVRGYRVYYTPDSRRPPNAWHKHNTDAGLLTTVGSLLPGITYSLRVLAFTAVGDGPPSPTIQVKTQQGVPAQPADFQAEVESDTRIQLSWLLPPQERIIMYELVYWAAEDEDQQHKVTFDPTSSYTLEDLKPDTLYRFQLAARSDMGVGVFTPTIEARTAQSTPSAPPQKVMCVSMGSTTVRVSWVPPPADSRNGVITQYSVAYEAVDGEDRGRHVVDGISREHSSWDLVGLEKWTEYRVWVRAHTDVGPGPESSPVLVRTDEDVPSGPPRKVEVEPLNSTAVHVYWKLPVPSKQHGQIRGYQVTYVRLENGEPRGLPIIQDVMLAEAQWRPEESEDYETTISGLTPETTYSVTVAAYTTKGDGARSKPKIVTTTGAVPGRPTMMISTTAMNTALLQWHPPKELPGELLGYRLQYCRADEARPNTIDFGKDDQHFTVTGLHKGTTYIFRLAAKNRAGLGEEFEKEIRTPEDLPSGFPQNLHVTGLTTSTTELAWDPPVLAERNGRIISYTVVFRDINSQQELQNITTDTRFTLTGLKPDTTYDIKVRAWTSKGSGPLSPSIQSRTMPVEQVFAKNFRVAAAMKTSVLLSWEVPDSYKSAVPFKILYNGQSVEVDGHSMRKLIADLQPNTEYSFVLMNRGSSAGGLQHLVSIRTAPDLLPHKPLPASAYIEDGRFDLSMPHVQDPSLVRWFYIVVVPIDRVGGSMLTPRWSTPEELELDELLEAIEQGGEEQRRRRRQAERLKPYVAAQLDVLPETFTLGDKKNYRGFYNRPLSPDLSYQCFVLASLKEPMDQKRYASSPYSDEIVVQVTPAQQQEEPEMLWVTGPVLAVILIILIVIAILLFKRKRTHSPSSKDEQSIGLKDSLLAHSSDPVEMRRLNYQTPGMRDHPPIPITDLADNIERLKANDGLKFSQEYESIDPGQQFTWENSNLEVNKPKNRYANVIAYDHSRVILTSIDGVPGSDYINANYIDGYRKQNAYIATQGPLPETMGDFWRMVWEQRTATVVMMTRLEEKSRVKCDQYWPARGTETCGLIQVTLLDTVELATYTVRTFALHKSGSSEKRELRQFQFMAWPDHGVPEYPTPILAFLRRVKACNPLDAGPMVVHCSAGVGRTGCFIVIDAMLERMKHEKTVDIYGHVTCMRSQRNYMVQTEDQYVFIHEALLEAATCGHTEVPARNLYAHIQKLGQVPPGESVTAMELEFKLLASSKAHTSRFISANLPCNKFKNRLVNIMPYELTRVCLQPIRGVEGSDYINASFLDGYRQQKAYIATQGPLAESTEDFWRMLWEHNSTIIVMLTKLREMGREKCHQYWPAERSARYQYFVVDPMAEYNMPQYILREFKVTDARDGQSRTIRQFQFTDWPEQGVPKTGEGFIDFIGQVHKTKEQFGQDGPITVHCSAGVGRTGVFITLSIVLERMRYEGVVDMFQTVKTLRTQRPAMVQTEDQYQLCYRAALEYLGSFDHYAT

SHP1 = SHP1 (Homo sapiens, UniProt P29350); test: PTP inhibition assay (pNPP); conditions: pNPP at Km, pH 7.0, 25° C.
Chain of SHP1 (P29350 whole entry): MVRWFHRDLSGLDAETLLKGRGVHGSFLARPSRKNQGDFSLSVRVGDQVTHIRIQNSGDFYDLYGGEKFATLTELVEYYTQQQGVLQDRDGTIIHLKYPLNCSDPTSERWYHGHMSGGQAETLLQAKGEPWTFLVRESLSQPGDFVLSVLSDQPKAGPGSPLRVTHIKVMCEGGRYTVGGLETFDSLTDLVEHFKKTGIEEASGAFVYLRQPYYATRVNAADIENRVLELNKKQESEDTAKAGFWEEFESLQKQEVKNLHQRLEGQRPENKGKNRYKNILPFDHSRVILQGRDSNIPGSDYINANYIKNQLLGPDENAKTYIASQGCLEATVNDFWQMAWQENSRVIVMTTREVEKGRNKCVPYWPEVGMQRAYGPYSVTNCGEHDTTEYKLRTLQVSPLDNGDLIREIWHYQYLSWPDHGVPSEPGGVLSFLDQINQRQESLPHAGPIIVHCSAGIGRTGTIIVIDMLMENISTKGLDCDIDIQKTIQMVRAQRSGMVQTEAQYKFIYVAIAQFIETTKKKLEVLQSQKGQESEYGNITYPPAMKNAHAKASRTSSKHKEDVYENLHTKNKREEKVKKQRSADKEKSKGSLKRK

LMWPTP = target: T2, LMWPTP (Homo sapiens, UniProt P24666); test: PTP inhibition assay (pNPP)
T2 sequence (P24666 1-158): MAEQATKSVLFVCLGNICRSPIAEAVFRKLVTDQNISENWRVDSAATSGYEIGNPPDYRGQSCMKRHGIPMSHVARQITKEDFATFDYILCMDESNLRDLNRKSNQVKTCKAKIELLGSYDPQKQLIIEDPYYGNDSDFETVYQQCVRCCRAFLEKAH

SHP2 = target: T3, SHP2 (Homo sapiens, UniProt Q06124); test: SHP2 phosphatase inhibition assay (pNPP); conditions: pNPP at Km, pH 7.0, 25° C.; read-out: IC50 SHP2
T3 sequence (Q06124 224-528): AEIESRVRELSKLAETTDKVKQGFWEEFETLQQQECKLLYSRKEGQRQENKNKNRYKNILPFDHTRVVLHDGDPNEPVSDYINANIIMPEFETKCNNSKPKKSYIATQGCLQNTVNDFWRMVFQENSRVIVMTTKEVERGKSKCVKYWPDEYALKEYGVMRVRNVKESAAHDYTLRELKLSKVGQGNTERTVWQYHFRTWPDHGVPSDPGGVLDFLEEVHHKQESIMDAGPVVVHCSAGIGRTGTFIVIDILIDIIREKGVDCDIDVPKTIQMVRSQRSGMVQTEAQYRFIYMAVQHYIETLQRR

PTPα = PTPα (Homo sapiens, UniProt P18433); test: PTP inhibition assay (pNPP)
Chain of PTPα (P18433 20-802): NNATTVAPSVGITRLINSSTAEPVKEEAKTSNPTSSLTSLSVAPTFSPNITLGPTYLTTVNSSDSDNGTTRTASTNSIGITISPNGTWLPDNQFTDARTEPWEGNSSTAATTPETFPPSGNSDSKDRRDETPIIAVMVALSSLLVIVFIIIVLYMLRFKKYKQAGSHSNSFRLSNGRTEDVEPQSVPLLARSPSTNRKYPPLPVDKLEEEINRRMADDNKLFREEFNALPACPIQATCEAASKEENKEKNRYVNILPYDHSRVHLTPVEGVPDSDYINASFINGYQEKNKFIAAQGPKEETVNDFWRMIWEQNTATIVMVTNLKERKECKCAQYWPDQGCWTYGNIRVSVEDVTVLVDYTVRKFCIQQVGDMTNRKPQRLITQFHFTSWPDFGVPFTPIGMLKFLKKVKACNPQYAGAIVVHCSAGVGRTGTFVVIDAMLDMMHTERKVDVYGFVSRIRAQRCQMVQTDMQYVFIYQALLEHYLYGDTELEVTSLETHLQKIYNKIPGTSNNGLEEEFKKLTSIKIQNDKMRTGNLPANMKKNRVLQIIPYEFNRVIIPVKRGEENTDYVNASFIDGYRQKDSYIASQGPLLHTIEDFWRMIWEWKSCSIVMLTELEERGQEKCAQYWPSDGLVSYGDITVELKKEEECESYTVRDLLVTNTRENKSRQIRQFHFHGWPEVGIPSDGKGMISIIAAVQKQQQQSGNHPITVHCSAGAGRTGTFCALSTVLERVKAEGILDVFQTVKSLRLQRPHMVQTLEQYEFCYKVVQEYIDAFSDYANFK

PTPγ = PTPγ (Homo sapiens, UniProt P23470); test: PTP inhibition assay (pNPP)
Chain of PTPγ (P23470 20-1445): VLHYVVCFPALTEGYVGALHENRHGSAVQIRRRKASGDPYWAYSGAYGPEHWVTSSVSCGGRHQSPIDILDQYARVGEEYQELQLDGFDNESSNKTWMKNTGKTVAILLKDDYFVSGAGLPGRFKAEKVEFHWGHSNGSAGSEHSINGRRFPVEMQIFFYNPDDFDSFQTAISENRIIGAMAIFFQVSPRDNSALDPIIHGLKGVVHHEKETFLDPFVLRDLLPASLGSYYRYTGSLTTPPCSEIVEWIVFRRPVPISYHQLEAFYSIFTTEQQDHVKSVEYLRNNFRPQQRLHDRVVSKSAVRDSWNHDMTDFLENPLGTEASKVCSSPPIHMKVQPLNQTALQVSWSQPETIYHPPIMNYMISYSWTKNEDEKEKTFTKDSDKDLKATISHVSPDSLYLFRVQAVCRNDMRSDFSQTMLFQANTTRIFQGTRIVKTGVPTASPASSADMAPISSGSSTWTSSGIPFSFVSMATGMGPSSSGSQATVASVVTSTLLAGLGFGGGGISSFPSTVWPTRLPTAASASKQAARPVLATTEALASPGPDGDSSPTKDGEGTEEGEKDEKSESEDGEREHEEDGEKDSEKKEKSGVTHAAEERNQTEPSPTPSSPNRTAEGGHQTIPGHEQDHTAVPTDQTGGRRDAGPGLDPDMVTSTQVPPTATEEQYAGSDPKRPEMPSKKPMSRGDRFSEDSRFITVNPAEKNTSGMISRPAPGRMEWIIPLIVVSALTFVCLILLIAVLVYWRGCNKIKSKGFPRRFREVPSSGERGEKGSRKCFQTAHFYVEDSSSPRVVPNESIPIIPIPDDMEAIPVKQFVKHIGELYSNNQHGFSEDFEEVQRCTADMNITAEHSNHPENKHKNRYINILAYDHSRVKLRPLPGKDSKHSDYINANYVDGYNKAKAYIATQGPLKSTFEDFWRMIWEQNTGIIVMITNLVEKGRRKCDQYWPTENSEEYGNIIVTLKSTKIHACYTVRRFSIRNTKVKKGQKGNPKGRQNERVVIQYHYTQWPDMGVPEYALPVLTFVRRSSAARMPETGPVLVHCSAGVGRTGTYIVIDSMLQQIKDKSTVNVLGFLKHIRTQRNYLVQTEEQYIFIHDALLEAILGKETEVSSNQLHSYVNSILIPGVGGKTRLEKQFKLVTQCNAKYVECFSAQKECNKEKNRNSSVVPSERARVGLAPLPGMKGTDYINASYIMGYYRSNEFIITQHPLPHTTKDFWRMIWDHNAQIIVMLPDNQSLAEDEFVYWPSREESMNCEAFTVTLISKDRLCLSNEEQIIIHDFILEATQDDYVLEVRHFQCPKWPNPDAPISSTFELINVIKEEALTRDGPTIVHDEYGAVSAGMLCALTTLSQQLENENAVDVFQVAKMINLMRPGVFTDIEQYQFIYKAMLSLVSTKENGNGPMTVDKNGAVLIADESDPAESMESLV

PEST = target: T4, PEST (Homo sapiens, UniProt Q05209); test: PTP inhibition assay (pNPP)
T4 sequence (Q05209 1-780): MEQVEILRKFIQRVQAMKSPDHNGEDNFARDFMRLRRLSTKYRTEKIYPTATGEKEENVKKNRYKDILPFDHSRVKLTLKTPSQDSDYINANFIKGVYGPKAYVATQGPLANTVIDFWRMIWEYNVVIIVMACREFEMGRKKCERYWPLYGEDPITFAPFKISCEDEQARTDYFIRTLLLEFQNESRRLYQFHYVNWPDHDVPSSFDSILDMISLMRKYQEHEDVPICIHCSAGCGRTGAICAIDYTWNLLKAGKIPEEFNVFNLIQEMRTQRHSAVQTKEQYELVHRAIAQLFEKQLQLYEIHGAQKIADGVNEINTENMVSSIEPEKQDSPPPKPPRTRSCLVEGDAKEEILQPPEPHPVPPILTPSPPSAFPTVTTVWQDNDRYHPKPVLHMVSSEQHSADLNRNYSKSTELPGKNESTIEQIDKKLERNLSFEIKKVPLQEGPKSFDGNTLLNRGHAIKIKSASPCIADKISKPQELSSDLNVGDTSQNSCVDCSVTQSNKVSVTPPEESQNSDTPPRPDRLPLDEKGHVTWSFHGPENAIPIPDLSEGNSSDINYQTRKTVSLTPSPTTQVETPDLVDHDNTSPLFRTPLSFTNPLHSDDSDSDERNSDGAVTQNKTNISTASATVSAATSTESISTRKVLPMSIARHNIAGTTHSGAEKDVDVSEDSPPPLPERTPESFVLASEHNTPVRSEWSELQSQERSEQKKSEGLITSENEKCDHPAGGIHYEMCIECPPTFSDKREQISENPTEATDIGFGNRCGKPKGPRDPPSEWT

MKP3 = target: T5, MKP3 (Homo sapiens, UniProt Q16828); test: PTP inhibition assay (pNPP)
T5 sequence (Q16828 1-381): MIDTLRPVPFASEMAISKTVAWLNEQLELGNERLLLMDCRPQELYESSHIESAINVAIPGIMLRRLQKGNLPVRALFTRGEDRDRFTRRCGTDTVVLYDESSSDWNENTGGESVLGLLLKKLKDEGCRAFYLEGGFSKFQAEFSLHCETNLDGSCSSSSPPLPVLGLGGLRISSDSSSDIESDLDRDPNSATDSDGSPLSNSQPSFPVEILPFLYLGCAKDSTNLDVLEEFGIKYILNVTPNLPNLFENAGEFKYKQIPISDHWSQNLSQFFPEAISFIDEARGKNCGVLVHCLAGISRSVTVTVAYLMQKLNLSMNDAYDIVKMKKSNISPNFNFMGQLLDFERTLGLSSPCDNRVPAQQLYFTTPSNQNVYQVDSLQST

[1] = pNPP at Km, pH 7.0, 25° C., read-out: IC50 PEST

Row | Compound | IC50 (PTP1B) | IC50 (LAR) | IC50 (SHP1) | IC50 (LMWPTP; pNPP at Km, pH 7.0, 25° C.) | IC50 (SHP2) | IC50 (PTPα) | IC50 (PTPγ) | IC50 (PEST; [1]) | IC50 (MKP3) | IC50 (PEST; IC50 PEST) | IC50 (PEST; pH 7, read-out: IC50 PEST) | IC50 (LMWPTP; pH 7)
1 | Cc1c(Br)cc(NC(=O)CS(=O)(=O)O)cc1Br | > 100 µM | > 100 µM | > 100 µM | 4.2 µM | > 100 µM | > 100 µM | > 100 µM | – | – | – | – | –
2 | O=C(CS(=O)(=O)O)Nc1ccc2nc(C(F)(F)F)[nH]c2c1 | > 100 µM | > 100 µM | > 100 µM | 1.86 µM | > 100 µM | > 100 µM | > 100 µM | > 100 µM | > 100 µM | – | – | –
3 | O=C(CS(=O)(=O)O)Nc1cnc2ccccc2c1 | > 100 µM | > 100 µM | > 100 µM | 12 µM | > 100 µM | > 100 µM | > 100 µM | > 100 µM | > 100 µM | – | – | –
4 | O=C(NCCNC(=O)C(c1ccccc1)S(=O)(=O)O)c1cccc(C(=O)c2ccccc2)c1 (stereo not shown) [Compound L319-02-A60] | > 200 µM | – | > 200 µM | > 200 µM | > 200 µM | – | – | > 200 µM | – | – | – | –
5 | O=C(NCc1ccc(NC(=O)C(c2ccccc2)S(=O)(=O)O)cc1)c1ccccc1-c1ccc(C(F)(F)F)cc1 (stereo not shown) [Compound L319-05-A64] | 183 µM | – | – | 29 µM | 69 µM | – | – | 160 µM | – | – | – | –
6 | CCCCc1ccc(NC(=O)C(=O)Nc2ccccc2NC(=O)C(c2ccccc2)S(=O)(=O)O)cc1 (stereo not shown) [Compound L319-21-M06] | > 50 µM | – | > 50 µM | > 50 µM | > 50 µM | – | – | > 50 µM | – | – | – | –
7 | O=C(Nc1cccc(OCc2ccccc2)c1)C(=O)Nc1ccccc1NC(=O)C(c1ccccc1)S(=O)(=O)O (stereo not shown) [Compound L319-21-M52] | > 50 µM | – | > 50 µM | > 50 µM | > 50 µM | – | – | > 50 µM | – | – | – | –
8 | Cc1c(Br)cc(NC(=O)C(c2ccccc2)S(=O)(=O)O)cc1Br (stereo not shown) [Compound L319M34] | – | – | 55.5 µM | 4.5 µM | > 100 µM | – | – | – | – | 42.3 µM | 72.3 µM | 5.3 µM
9 | O=C(Nc1ccc(OCc2ccccc2)c(Cl)c1)C(c1ccccc1)S(=O)(=O)O (stereo not shown) [Compound L319M50] | > 200 µM | – | 53.2 µM | – | > 200 µM | – | – | 69.9 µM | – | – | – | 12.1 µM
10 | O=C(Nc1cccc(OCc2ccccc2)c1)C(c1ccccc1)S(=O)(=O)O (stereo not shown) [Compound L319M52] | > 200 µM | > 200 µM | > 200 µM and 62.3 µM | 72.3 µM | > 200 µM | > 200 µM | > 200 µM | 77 µM and 77.4 µM | > 200 µM | – | – | –
11 | O=C(Nc1ccc2nc(C(F)(F)F)[nH]c2c1)C(c1ccccc1)S(=O)(=O)O (stereo not shown) [Compound L319M54] | > 200 µM | > 200 µM | > 200 µM | 7.96 µM and 5 µM | > 200 µM | > 200 µM | > 200 µM | > 200 µM | > 200 µM | – | – | 5.6 µM
12 | O=C(Nc1ccc(N2CCOCC2)cc1)C(c1ccccc1)S(=O)(=O)O (stereo not shown) [Compound L319M68] | > 200 µM | > 200 µM | > 200 µM | 20 µM | > 200 µM | > 200 µM | > 200 µM | > 200 µM | > 200 µM | – | – | 8.1 µM
13 | O=C(Nc1cnc2ccccc2c1)C(c1ccccc1)S(=O)(=O)O (stereo not shown) [Compound L319M88] | > 200 µM | > 200 µM | > 200 µM | 6.1 µM | > 200 µM | > 200 µM | > 200 µM | > 200 µM | > 200 µM | – | – | 7.3 µM
14 | O=C(Nc1ccc(-c2ccccc2)cc1)C(c1ccccc1)S(=O)(=O)O (stereo not shown) [Compound L319N08] | > 200 µM | – | 64.6 µM | 28.9 µM | > 100 µM | – | – | – | – | 59.7 µM | – | –
15 | O=C(Nc1nc2ccccc2s1)C(c1ccccc1)S(=O)(=O)O (stereo not shown) [Compound L319N15] | > 200 µM | > 200 µM | > 200 µM and 59.6 µM | 7.33 µM and 8.6 µM | > 200 µM and > 100 µM and 160 µM | > 200 µM | > 200 µM | 43.5 µM | > 200 µM | – | – | 7.1 µM
16 | O=C(C(c1ccccc1)S(=O)(=O)O)N1CCC(Cc2ccccc2)CC1 (stereo not shown) [Compound L319N46] | > 200 µM | > 200 µM | > 200 µM | > 200 µM | > 200 µM | > 200 µM | > 200 µM | > 200 µM | > 200 µM | – | – | –
17 | O=C(C(c1ccccc1)S(=O)(=O)O)N1CCC(c2ccc(Cl)c(Cl)c2)CC1 (stereo not shown) [Compound L319N47] | 145 µM | > 200 µM | 66 µM | 115 µM | 76 µM | > 200 µM | 180 µM | 42 µM | > 200 µM | – | – | –
18 | O=C(C(c1ccccc1)S(=O)(=O)O)N1CCCC2CCCCC21 (stereo not shown) [Compound L319N53] | > 200 µM | > 200 µM | > 200 µM | > 200 µM | > 200 µM | > 200 µM | > 200 µM | > 200 µM | > 200 µM | – | – | –
19 | O=C(CS(=O)(=O)O)Nc1nc2ccc([N+](=O)[O-])cc2s1 [Compound L335N15-07] | > 100 µM | > 100 µM | > 100 µM | 0.3 µM | > 100 µM | > 100 µM | > 100 µM | > 100 µM | > 100 µM | – | – | –
20 | O=C(CS(=O)(=O)O)Nc1nc2ccccc2s1 [Compound L335N15] | > 100 µM | > 100 µM | > 100 µM | 2.1 µM | > 100 µM | > 100 µM | > 100 µM | > 100 µM | > 100 µM | – | – | –
